Data published in patent US7169806B2, “Antidiabetic agents” (Ferring BV, priority 1999, dated 2007).

System: male Zucker Fatty Rats
Assay: In vivo activity in glucose tolerance model (oral glucose challenge)
Set-up: species or system rat
Settings: mean ± SE, n = 4; for Blood glucose, t = 10: t = 10 minutes; for Blood glucose, t = 20: t = 20 minutes; for Blood glucose, t = 30: t = 30 minutes; for Blood glucose, t = 60: t = 60 minutes; for Blood glucose, t = 120: t = 120 minutes
Protocol: The activity of the compounds was investigated in male Zucker Fatty Rats between 10 and 20 weeks of age. The animals were fasted overnight and then administered with the test compound (10 mg/kg) as a solution by oral gavage. One hour later hour a blood sample (200 μl) is taken from the tail vein to establish a baseline (t=0) glucose level, then the animals are given glucose (1 g/kg as a 40% wt/vol solution) orally. Further blood samples are taken at t=10, 20, 30, 60 and 120 minutes. Glucose is determined by an enzymatic assay.
In a separate experiment the test compound was given at the same dose (10 mg/kg) but 12 hours before the oral glucose challenge.

[1] = 10 mg/kg given 12 hours before the oral glucose challenge
[2] = 10 mg/kg oral gavage 1 hour before oral glucose (1 g/kg), baseline t = 0
[3] = 10 mg/kg oral gavage 1 hour before oral glucose (1 g/kg)

SMILES | AUC (area under the concentration-time curve) of blood glucose [1] | Blood glucose, t = 0 (10 mg/kg given 12 hours before the oral glucose challenge, t = 0) [mg/dL] | Blood glucose, t = 10 [1] [mg/dL] | Blood glucose, t = 20 [1] [mg/dL] | Blood glucose, t = 30 [1] [mg/dL] | Blood glucose, t = 60 [1] [mg/dL] | Blood glucose, t = 120 [1] [mg/dL] | Blood glucose, t = 0 [2] [mg/dL] | Blood glucose, t = 10 [3] [mg/dL] | Blood glucose, t = 20 [3] [mg/dL] | Blood glucose, t = 30 [3] [mg/dL] | Blood glucose, t = 60 [3] [mg/dL] | Blood glucose, t = 120 [3] [mg/dL]
CC(=O)OC(C)OC(=O)N[C@H](C(=O)N1CCC[C@H]1C#N)C(C)(C)C (stereo partly drawn) [Example 1, (2S)-1-((2′S)-2′-(1″-Acetoxyethoxycarbonylamino)-3′,3′-dimethylbutanoyl)pyrrolidine-2-carbonitrile] | 2430 ± 591 | 83.7 ± 3.8 | 113.5 ± 10.8 | 111.3 ± 9.9 | 91.9 ± 11.8 | 99.3 ± 10.0 | 116.9 ± 14.4 | – | – | – | – | – | –
CC[C@H](C)[C@H](NC(=O)OC(C)OC(C)=O)C(=O)N1CCC[C@H]1C#N (stereo partly drawn) [Example 2, (2S)-1-(N′-(1″-Acetoxyethoxycarbonyl)isoleucyl)pyrrolidine-2-carbonitrile] | – | – | – | – | – | – | – | 80.2 ± 4.2 | 122.2 ± 7.8 | 117.8 ± 4.8 | 104.4 ± 5.6 | 117.6 ± 6.7 | 111.3 ± 12.1
CC[C@H](C)[C@H](NC(=O)OC)C(=O)N1CCC[C@H]1C#N [Example 3, (2S)-1-(N′-(Methoxycarbonyl)isoleucyl)pyrrolidine-2-carbonitrile] | – | – | – | – | – | – | – | 86.4 ± 3.4 | 175.1 ± 3.8 | 148.5 ± 23.2 | 136.7 ± 16.9 | 120.6 ± 8.3 | 101.9 ± 4.5
CC[C@H](C)[C@H](NC(=O)CN)C(=O)N1CCC[C@H]1C#N [Example 5, (2S)-1-(Glycylisoleucyl)pyrrolidine-2-carbonitrile] | – | – | – | – | – | – | – | 80.5 ± 1.4 | 141.3 ± 14.5 | 134.2 ± 10.3 | 129.2 ± 8.2 | 114.6 ± 8.1 | 121.2 ± 5.8
CC[C@H](C)[C@H](N)C(=O)N1CCC[C@H]1C#N [Reference, (2S)-1-(Isoleucyl)pyrrolidine-2-carbonitrile, reference compound] | – | – | – | – | – | – | – | 91.4 ± 5.2 | 125.8 ± 8.9 | 110.0 ± 21.5 | 110.9 ± 4.4 | 112.2 ± 7.5 | 108.7 ± 8.9
